Test results: US10034853B2, “PPAR α/γ dual agonist and its application” (Shanghai University of Traditional Chinese Medicine, priority 2013, dated 2018)
“Also recorded” adds a separate entry of the source. Like-named read-outs stand apart in the source and are kept apart here.

Tests used:
db/db mice = assay: Blood glucose and glucose tolerance in db/db mice; assay type: in vivo; conditions: for reduction of fasting blood glucose compared with vehicle: after 6 days treatment, intragastric
Description: Mice were fasted 8 hours before subjected to a dose of 1 g glucose per kg body weight. Blood was taken from tail and measured at 0, 15, 30, 60 and 90 minutes. The data were expressed with means±SE, n=9 for each group.
The db/db mice with leptin receptor mutation begin to show the symptoms of obesity, hyperlipidemia, insulin resistance, hyperglycemia and others at 4 weeks. This is an ideal kind of mice model for obese diabetic mice.
The db/db mice were kept in polycarbonate cages under regulated temperature (22-23° C.) and controlled humidity (50%-60%) with 12-hour light/12-hour dark cycle. All the mice were allowed to adapt to the standard housing conditions. Mice and food were weighed regularly to investigate the changes in body weight and food intake.
During the experimental period, the eight-week old db/db mice were treated with water and a normal standard cylindrical diet. […] An intraperitoneal glucose tolerance test (IPGTT) was carried out after one week of treatment. Mice were fasted 8 hours before subjected to a dose of 1 g glucose per kg body weight. Blood was taken from tail at 0, 15, 30, 60, and 90 minutes. After 11 days of treatment, 0.75 U/kg body weight of insulin was injected intraperitoneally to perform intraperitoneal insulin tolerance test (IPITT). Blood was taken from tail at 0, 15, 30, 60, 90 and 120 minutes. After 20 days, all the db/db mice were anaesthetized by pentobarbital sodium after 8-hour fast. Blood and tissues were collected and stored at −80° C. for the further analysis.

PPAR γ = target: T1, PPAR γ (Mus musculus, UniProt P37238); assay: Dual-luciferase reporter gene assay, PPAR γ transcriptional activity in 293T cells; assay type: cell-based; conditions: for transcription activity on PPAR γ relative to compound A: 293T reporter assay
T1 construct: pCMX-Gal-mPPAR γ LBD plasmids; expressed in transfected cells; host or cells: 293T cells (ATCC)
T1 sequence (P37238 238-503 limits assumed): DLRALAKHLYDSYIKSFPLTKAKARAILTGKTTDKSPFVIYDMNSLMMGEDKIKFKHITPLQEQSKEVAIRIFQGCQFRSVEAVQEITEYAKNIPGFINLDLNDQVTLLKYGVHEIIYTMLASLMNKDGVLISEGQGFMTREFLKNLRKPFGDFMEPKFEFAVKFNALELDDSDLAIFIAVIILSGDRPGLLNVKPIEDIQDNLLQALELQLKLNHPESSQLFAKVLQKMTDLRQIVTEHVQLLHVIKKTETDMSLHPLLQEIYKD
Description: Reporter gene assay was used to detect the impacts of the compounds A, B and C on the transcriptional activities of PPAR γ and PPAR α. The inventors used the PPAR-α, α-LBD, γ and γ-LBD plasmids to detect the impacts of bavachinin on transcription activities of these two PPAR subtype. All the transfections were added to 293T cells (ATCC) overnight and then removed. The positive agonists or the test compounds were diluted in fresh media, and then added into the cells. After incubating for another 24 hours, the cells were harvested to detect luciferase activity.
293T cells were cultured in Dulbecco's modified Eagle's medium (DMEM) with 10% fetal bovine serum and 1% Penicillin/Streptomycin anti-DMEM high glucose medium at 37° C. and 5% CO2. 293T cells in log phase were seeded into 48-well plate with the cell density of 1×10^5˜2×10^5 cells/mL.
(§1) pCMX-Gal-mPPAR γ LBD plasmids, Gal4 reporter vector MH100×4-TK-Luc recombinant plasmids and renilla luciferase internal reference plasmids; PPAR α-LBD plasmids; PPAR γ plasmids; PPAR α plasmids.
When the cells grew to a density of 50 to 80% after seeded in plate overnight, it's good to carry out the transfection. All the transfections, which included 10 μg of total plasmids and 15 μL FuGENE-HD transfection reagent per mL of DMEM, were placed at room temperature for 15 minutes and then added to 293T cells (ATCC) overnight and then removed.
After incubating overnight, the compound A or B or C or positive PPAR γ/α agonists rosiglitazone (as the specific agonistic ligand of PPAR γ) or WY14643 (as the specific agonistic ligand of PPAR α) with different concentrations diluted by complete medium (2, 5, 10, 25, 50 μmol/L) were added into cells. The final concentration of positive agonists was 20 μmol/L).
(§2) After 24 hours, cells were washed twice with PBS to remove the remaining cell culture medium; 65 μL lysis buffer was added into each well and oscillated by the shaker for 15 minutes until cell lysis was complete. Finally the cell lysate was transferred into a 1.5 mL centrifuge tube; The cell lysate was centrifuged at 5000 rpm for 5 minutes and then 10 μL supernatant was taken to a new centrifuge tube for testing.
(§3) We conducted the luciferase reporter assay using Dual-Luciferase Reporter Assay System (Promega, USA). The transfection efficiency was normalized using the internal reference renilla luciferase activity. All transfection experiments were independently repeated for at least three times, with each experimental group having at least two deputy holes.
(§4) The Bio-Tek, Synergy HT multifunctional microplate reader was used to detect the fluorescence intensity of firefly and renilla. After normalizing via the internal reference renilla luciferase activity, the relative luciferase activity was expressed by the ratio of the fluorescence intensity of firefly luciferase and renilla luciferase.
(§5) Data were expressed as mean±standard error of mean (SEM). One-way ANOVA was used to analyze statistically differences between groups with LSD test for multiple comparisons using SPSS 16.0. The EC50 values were calculated using GraphPad Prism 5.0. A P value≤0.05 was regarded as statistically significant different.

PPAR α = target: T2, PPAR α (Homo sapiens, UniProt Q07869); assay: Dual-luciferase reporter gene assay, PPAR α transcriptional activity in 293T cells; assay type: cell-based; conditions: for EC50: 293T cells, luciferase reporter, 24 hours incubation; for transcription activity on PPAR α relative to compound A: 293T reporter assay
T2 construct: PPAR α-LBD plasmids; expressed in transfected cells; host or cells: 293T cells (ATCC)
T2 sequence (Q07869 239-466 limits assumed): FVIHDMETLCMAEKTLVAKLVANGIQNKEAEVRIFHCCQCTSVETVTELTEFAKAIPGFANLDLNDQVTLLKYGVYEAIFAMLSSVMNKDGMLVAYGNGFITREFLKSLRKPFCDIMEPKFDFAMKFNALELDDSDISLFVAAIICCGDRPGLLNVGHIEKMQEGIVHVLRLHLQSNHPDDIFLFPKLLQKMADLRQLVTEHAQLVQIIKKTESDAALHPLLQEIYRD
Description: The inventors used the PPAR-α, α-LBD, γ and γ-LBD plasmids to detect the impacts of bavachinin on transcription activities of these two PPAR subtype. […] The positive agonists or the test compounds were diluted in fresh media, and then added into the cells. After incubating for another 24 hours, the cells were harvested to detect luciferase activity.
as §1
When the cells grew to a density of 50 to 80% after seeded in plate overnight, it's good to carry out the transfection.
The final concentration of positive agonists was 20 μmol/L).
as §2, §3, §4, §5

[1] = test system: PPAR α/γ target genes in HepG2 cells; assay: Real-time PCR of PPAR α/γ target genes in HepG2 cells; assay type: cell-based; conditions: 24 hours, 25 μM (stated for compound A); for expression of PPAR α/γ target genes (GLUT4, CD36, LPL, Fasn, ACO): β-actin reference
Description: Used Real-time fluorescence quantitative PCR (Real-time PCR) to detect how the compounds A, B and C regulate the expression of PPAR γ/α-related target genes in liver HepG2 cells.
HepG2 cells was grown in Dulbecco's modified Eagle's medium (DMEM, HyClone) with 10% fetal bovine serum (FBS, HyClone) and 1% Penicillin/Streptomycin (Gibco) at 37° C. and 5% CO2. HepG2 cells at logarithmic growth phase were plated in 12-well plates with the cell density was 5×10^4 cells/mL, and then were treated by compound A for 24 hours. Quantitative PCR analysis was performed using β-actin as an endogenous reference.
When the density of HepG2 cells was grown about 60%, compound A (dissolved in DMSO as a stock solution) diluted with complete medium was added into cells. The final concentration was 25 μM (μmol/L).
After 24 hours, total RNA of treated HepG2 cells was isolated using TRIzol reagent (Takara, Japan) according to the manual.
The total RNA was reversely transcribed to cDNA applying the reverse transcription kit (Thermo, Mass., USA). We established 20 μL reverse transcription reaction system according to Table 2. The reaction system was mixed and placed at room temperature (25° C.) for 5 minutes, incubated at 42° C. for 1 hour, incubated at 70° C. for 5 minutes. cDNA was stored at −20° C.
All primers were designed by the Prime 3.0 software. Briefly, after an initial denaturation at 95° C. for 10 minutes, the cDNA was amplified by 40 cycles of PCR (95° C., 15 seconds; 60° C., 60 seconds). All experiments were repeated at least three times independently.

[2] = test system: diet-induced obese (dio) C57BL/6J mice; assay: Lipid disorders in diet-induced obese (dio) mice; conditions: for effect on food intake / reduction of serum triglyceride (TG) levels compared to HFD group / effect on body weight: 3-week treatment; for reduction of serum triglyceride (TG) levels compared to HFD group: compound A 2 g per kg HFD; for effect on body weight: vs HFD group
Description: For the therapy study, the six-week old female C57BL/6J mice were fed with high-fat diet (HFD, 60% of calories from fat) for 12 weeks to induce obesity and insulin resistance (DIO). The mice were divided into 3 groups according to body weight and fasting blood glucose (n=9, 7, 7, 7). […] After 21 days of dosing, we took blood from heart of anaesthetized fasted 10-hour mice. Tissues were collected and stored at −80° C.
Serum was used for all the analysis of blood parameters.

3T3-L1 cells = assay: 3T3-L1 preadipocyte differentiation (oil red O staining); assay type: cell-based; conditions: for adipocyte differentiation activity relative to compound A: 25 μM vs compound A at 5 μM
Description: 3T3-L1 fibroblast cell line is widely used for adipocyte differentiation models. […] For adipocyte differentiation, 3T3-L1 cells were seeded into 12-well plate to full confluence for 2 days and then incubated with completed medium containing 10 μg/mL human insulin (Sigma-Aldrich), 1 μM dexamethasone (Sigma-Aldrich) and the test compounds at 37° C. and 7.5% CO2. After 2 days of induction, the medium was replaced with a maintenance medium (completed medium including 10 μg/mL insulin and the test compounds) for additional 2 days (Day 0-Day 2). Thereafter, the medium was refreshed with fresh medium with the test compounds for 4 days (Day 2-Day 6). The test compounds dissolved in dimethylsulfoxide (DMSO) was diluted by the completed medium (final DMSO concentration, 0.1%) at indicated concentration. rosiglitazone was used as a positive compound. The 3T3-L1 cells were washed with PBS twice, fixed with 10% formalin at room temperature for 10 minutes and then stained with oil red O (Sigma-Aldrich, St. Louis, Mo.) at 37° C. for 30 minutes. The pictures were taken using an Olympus microscope (Tokyo, Japan).

[3] = 100 mg/kg/d stated for compound A
[4] = 293T cells, luciferase reporter, 24 hours incubation, read-out: EC50 (μM) PPAR γ

| Compound | reduction of fasting blood glucose compared with vehicle (db/db mice; [3]) | expression of PPAR α/γ themselves [1] | expression of PPAR α/γ target genes (GLUT4, CD36, LPL, Fasn, ACO) [1] | effect on food intake [2] | reduction of serum triglyceride (TG) levels compared to HFD group [2] | effect on body weight [2] | EC50 (PPAR γ; [4]) [µM] | transcription activity on PPAR γ relative to compound A (PPAR γ) | EC50 (PPAR α; read-out: EC50 (μM) PPAR α) [µM] | transcription activity on PPAR α relative to compound A (PPAR α) | adipocyte differentiation activity relative to compound A (3T3-L1 cells; 3T3-L1 cells) | also measured |
| --- | --- | --- | --- | --- | --- | --- | --- | --- | --- | --- | --- | --- |
| COc1cc2c(cc1CC=C(C)C)C(=O)C[C@@H](c1ccc(O)cc1)O2 [compound A, bavachinin] | about 20% | did not effect | significantly increased | without affecting; also recorded: did not affect | around 23% | without affecting; also recorded: did not increase | – | – | – | – | – | glucose tolerance (IPGTT) (db/db mice; 100 mg/kg/d, 1 g/kg glucose after 8 hours fast): improved; EC50 (PPAR γ): 8.6 µM; PPAR γ transactivation compared with rosiglitazone (ROS) (PPAR γ; compound at 25 μM vs rosiglitazone at 20 μM): nearly equal to PPAR γ agonist rosiglitazone (ROS) at 20 μM; EC50 (PPAR α; EC50 (μM) PPAR α): 17.3 µM; PPAR α transactivation compared with full agonist WY14643 (PPAR α; WY14643 final concentration 20 μmol/L): more transactivation; serum TG levels in contrast to HFD group ([2]; FIG. 6D): significantly reduced; 3T3-L1 adipocyte differentiation (3T3-L1 cells; 1 μM, with insulin and dexamethasone, 6 days, oil red O): induced 3T3-L1 cell differentiation and lipid droplets formation; 3T3-L1 adipocyte differentiation (3T3-L1 cells; 10 μM, with insulin and dexamethasone, 6 days, oil red O): almost fully differentiated; 3T3-L1 adipocyte differentiation (3T3-L1 cells; 25 μM, with insulin and dexamethasone (FIG. 5C)): induced to differentiate into adipocytes; potency on adipocyte differentiation relative to rosiglitazone (3T3-L1 cells; 3T3-L1 cells): as potent as rosiglitazone |
| CC(=O)Oc1ccc(C2CC(=O)c3cc(CC=C(C)C)c(OC(C)=O)cc3O2)cc1 (stereo not drawn) [compound B] | about 10% | did not effect | significantly increased | without affecting | 20% | without affecting | 18.8 | less than that of compound A | 28.5 | less than that of compound A | nearly equal to the activity of compound A at 5 μM | – |
| COc1cc2c(cc1CC=C(C)C)C(=O)CC(c1ccc(OC(C)=O)cc1)O2 (stereo not drawn) [compound C] | ~8% | did not effect | significantly increased | without affecting | 12% | without affecting | 12.3 | less than that of compound A | 12.9 | less than that of compound A | nearly equal to the activity of compound A at 5 μM | – |
| CN(CCOc1ccc(CC2SC(=O)NC2=O)cc1)c1ccccn1 (stereo not drawn) [rosiglitazone, reference compound] | – | – | – | – | – | – | – | – | – | – | – | reduction of fasting blood glucose compared with vehicle (db/db mice; rosiglitazone 5 mg/kg/d): 5% |
